From ChEMBL document CHEMBL1201862, “PubChem BioAssay data set” (2004)
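Each compound was tested at five concentrations against cells in 96-well plates for 48 hours. GI50 marks 50% less growth.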 The source made the active and inactive calls. Cut-off read from the data, not from the text of the source: active = GI50 up to about 1.1 µM and inactive = higher.

Experiments:
Test in all cases: NCI tumour cell line growth inhibition, 48 h
IGROV-1 = system: IGROV-1
CCRF-CEM = system: CCRF-CEM
K562 = system: K562
UACC-257 = system: UACC-257
MDA-MB-231 = system: MDA-MB-231
RXF 393 = system: RXF 393
RPMI-8226 = system: RPMI-8226
OVCAR-4 = system: OVCAR-4
MDA-MB-435 = system: MDA-MB-435
ACHN = system: ACHN
SNB-19 = system: SNB-19
A549 = system: A549
HCT-15 = system: HCT-15
786-0 = system: 786-0
SN12C = system: SN12C
SR = system: SR
Malme-3M = system: Malme-3M
MDA-N = system: MDA-N
NCI-H23 = system: NCI-H23
T47D = system: T47D
NCI/ADR-RES = system: NCI/ADR-RES
SW-620 = system: SW-620
UACC-62 = system: UACC-62
SF-295 = system: SF-295
DU-145 = system: DU-145
SNB-75 = system: SNB-75
HT-29 = system: HT-29
LOX IMVI = system: LOX IMVI
M14 = system: M14
HCT-116 = system: HCT-116
BT-549 = system: BT-549
HOP-62 = system: HOP-62
CAKI-1 = system: CAKI-1
SF-539 = system: SF-539
OVCAR-8 = system: OVCAR-8
MCF7 = system: MCF7
U-251 = system: U-251
OVCAR-5 = system: OVCAR-5
NCI-H226 = system: NCI-H226
PC-3 = system: PC-3
HL-60 = system: HL-60
NCI-H460 = system: NCI-H460
COLO 205 = system: COLO 205
SK-OV-3 = system: SK-OV-3
SK-MEL-5 = system: SK-MEL-5
EKVX = system: EKVX
KM12 = system: KM12
HOP-92 = system: HOP-92
SK-MEL-2 = system: SK-MEL-2
HCC 2998 = system: HCC 2998
OVCAR-3 = system: OVCAR-3
TK-10 = system: TK-10
UO-31 = system: UO-31
MOLT-4 = system: MOLT-4
NCI-H522 = system: NCI-H522
SF-268 = system: SF-268
SK-MEL-28 = system: SK-MEL-28
A498 = system: A498

SMILES: CC(=O)Nc1ccccc1SCCSSCCSc1ccccc1NC(C)=O
- GI50 (IGROV-1): 20.3 µM (inactive)
- GI50 (CCRF-CEM): 23.6 µM (inactive)
- GI50 (K562): 28.6 µM (inactive)
- GI50 (UACC-257): 20.7 µM (inactive)
- GI50 (MDA-MB-231): 32.3 µM (inactive)
- GI50 (RXF 393): 34.2 µM (inactive)
- GI50 (RPMI-8226): 17.9 µM (inactive)
- GI50 (OVCAR-4): 22.6 µM (inactive)
- GI50 (MDA-MB-435): 19.5 µM (inactive)
- GI50 (ACHN): 20.6 µM (inactive)
- GI50 (SNB-19): 17.7 µM (inactive)
- GI50 (A549): 25.7 µM (inactive)
- GI50 (HCT-15): 20.7 µM
- GI50 (786-0): 28.4 µM (inactive)
- GI50 (SN12C): 32.4 µM (inactive)
- GI50 (SR): 34.4 µM (inactive)
- GI50 (Malme-3M): 34.7 µM (inactive)
- GI50 (MDA-N): 25.4 µM (inactive)
- GI50 (NCI-H23): 30.1 µM (inactive)
- GI50 (T47D): 25.6 µM (inactive)
- GI50 (NCI/ADR-RES): 31.8 µM (inactive)
- GI50 (SW-620): 39.3 µM (inactive)
- GI50 (UACC-62): 32 µM (inactive)
- GI50 (SF-295): 26.7 µM (inactive)
- GI50 (DU-145): 25.6 µM (inactive)
- GI50 (SNB-75): 24.3 µM (inactive)
- GI50 (HT-29): 28.8 µM (inactive)
- GI50 (LOX IMVI): 20 µM (inactive)
- GI50 (M14): 31.5 µM (inactive)
- GI50 (HCT-116): 36.2 µM (inactive)
- GI50 (BT-549): 51.9 µM (inactive)
- GI50 (HOP-62): 58.6 µM (inactive)
- GI50 (CAKI-1): 20.8 µM (inactive)
- GI50 (SF-539): 24 µM (inactive)
- GI50 (OVCAR-8): 38.9 µM (inactive)
- GI50 (MCF7): 38.9 µM (inactive)
- GI50 (U-251): 26.5 µM (inactive)
- GI50 (OVCAR-5): 31.5 µM (inactive)
- GI50 (NCI-H226): 31.1 µM (inactive)
- GI50 (PC-3): 23.1 µM (inactive)
- GI50 (HL-60): 17.4 µM (inactive)
- GI50 (NCI-H460): 25.1 µM (inactive)
- GI50 (COLO 205): 20.4 µM (inactive)
- GI50 (SK-OV-3): 27.8 µM (inactive)
- GI50 (SK-MEL-5): 38.5 µM (inactive)
- GI50 (EKVX): 43.3 µM (inactive)
- GI50 (KM12): 40.1 µM (inactive)
- GI50 (HOP-92): 17.5 µM (inactive)
- GI50 (SK-MEL-2): 27.9 µM (inactive)
- GI50 (HCC 2998): 22.3 µM (inactive)
- GI50 (OVCAR-3): 28.8 µM (inactive)
- GI50 (TK-10): 34.1 µM (inactive)
- GI50 (UO-31): 17.8 µM (inactive)
- GI50 (MOLT-4): 24 µM (inactive)
- GI50 (NCI-H522): 16.8 µM (inactive)
- GI50 (SF-268): 38.2 µM (inactive)

SMILES: OC[C@@H](O)[C@H](O)[C@H](O)[C@@H](O)C1SCCCS1
- GI50 (IGROV-1): > 100 µM (inactive)
- GI50 (UACC-257): > 100 µM (inactive)
- GI50 (MDA-MB-231): > 100 µM (inactive)
- GI50 (RXF 393): > 100 µM (inactive)
- GI50 (RPMI-8226): > 100 µM (inactive)
- GI50 (OVCAR-4): > 100 µM (inactive)
- GI50 (MDA-MB-435): > 100 µM (inactive)
- GI50 (ACHN): > 100 µM (inactive)
- GI50 (SNB-19): > 100 µM (inactive)
- GI50 (A549): > 100 µM (inactive)
- GI50 (HCT-15): > 100 µM
- GI50 (786-0): > 100 µM (inactive)
- GI50 (SN12C): > 100 µM (inactive)
- GI50 (SR): 63.8 µM (inactive)
- GI50 (MDA-N): > 100 µM (inactive)
- GI50 (NCI-H23): > 100 µM (inactive)
- GI50 (T47D): > 100 µM (inactive)
- GI50 (NCI/ADR-RES): > 100 µM (inactive)
- GI50 (SW-620): > 100 µM (inactive)
- GI50 (UACC-62): > 100 µM (inactive)
- GI50 (SF-295): > 100 µM (inactive)
- GI50 (DU-145): > 100 µM (inactive)
- GI50 (SNB-75): > 100 µM (inactive)
- GI50 (HT-29): > 100 µM (inactive)
- GI50 (M14): > 100 µM (inactive)
- GI50 (HCT-116): > 100 µM (inactive)
- GI50 (BT-549): > 100 µM (inactive)
- GI50 (HOP-62): > 100 µM (inactive)
- GI50 (CAKI-1): > 100 µM (inactive)
- GI50 (SK-MEL-28): > 100 µM (inactive)
- GI50 (SF-539): > 100 µM (inactive)
- GI50 (OVCAR-8): > 100 µM (inactive)
- GI50 (MCF7): > 100 µM (inactive)
- GI50 (U-251): > 100 µM (inactive)
- GI50 (OVCAR-5): > 100 µM (inactive)
- GI50 (NCI-H226): > 100 µM (inactive)
- GI50 (PC-3): > 100 µM (inactive)
- GI50 (NCI-H460): > 100 µM (inactive)
- GI50 (COLO 205): > 100 µM (inactive)
- GI50 (A498): > 100 µM (inactive)
- GI50 (SK-OV-3): > 100 µM (inactive)
- GI50 (SK-MEL-5): > 100 µM (inactive)
- GI50 (EKVX): > 100 µM (inactive)
- GI50 (KM12): > 100 µM (inactive)
- GI50 (HOP-92): 17.2 µM (inactive)
- GI50 (SK-MEL-2): > 100 µM (inactive)
- GI50 (HCC 2998): > 100 µM (inactive)
- GI50 (OVCAR-3): > 100 µM (inactive)
- GI50 (TK-10): > 100 µM (inactive)
- GI50 (UO-31): > 100 µM (inactive)
- GI50 (MOLT-4): > 100 µM (inactive)
- GI50 (SF-268): > 100 µM (inactive)
